Assay results: paper PMC3445516 (PLoS ONE, 2012)
Read-outs that look alike come from different tables or passages of the source. Values belong to the compound of their own block, whether it stands above or below them.

Assays:
Assay in all cases: Ambit kinase profiling, competition binding
CSNK1D = molecular target: T1, CSNK1D (Homo sapiens, UniProt P48730)
T1 construct: purchased Ambit Biosciences (KINOMEscan)
Experimental: (§1) Also included in the kinase profile are four isoforms of PKC (δ, ε, η, θ) and eight isoforms of CAMKs (CAMKIα, δ, γ; CAMKIIα, β, δ, γ; CAMK4).
(§2) The global kinase profiling experiment was performed by Ambit Biosciences.

CAMKIδ = molecular target: T2, CAMKIδ (Homo sapiens, UniProt Q8IU85); details: for competition: CAMKIδ, 10 µM
T2 construct: purchased Ambit Biosciences (KINOMEscan)
Experimental: as §1, §2

CSNK1G3 = molecular target: T3, CSNK1G3 (Homo sapiens, UniProt Q9Y6M4); details: for % Competition: 10 µM
T3 construct: purchased Ambit Biosciences (KINOMEscan)
Experimental: as §1, §2

EGFR(S752-I759del) = molecular target: T4, EGFR(S752-I759del) (Homo sapiens, UniProt P00533, DEL752-759); details: for % Competition: 10 µM
T4 construct: purchased Ambit Biosciences (KINOMEscan)
Experimental: as §1, §2

p38-beta = molecular target: T5, p38-beta (Homo sapiens, UniProt Q15759)
T5 construct: purchased Ambit Biosciences (KINOMEscan)
Experimental: as §1, §2

GAK = molecular target: T6, GAK (Homo sapiens, UniProt O14976)
T6 construct: purchased Ambit Biosciences (KINOMEscan)
T6 sequence (O14976 1-1311): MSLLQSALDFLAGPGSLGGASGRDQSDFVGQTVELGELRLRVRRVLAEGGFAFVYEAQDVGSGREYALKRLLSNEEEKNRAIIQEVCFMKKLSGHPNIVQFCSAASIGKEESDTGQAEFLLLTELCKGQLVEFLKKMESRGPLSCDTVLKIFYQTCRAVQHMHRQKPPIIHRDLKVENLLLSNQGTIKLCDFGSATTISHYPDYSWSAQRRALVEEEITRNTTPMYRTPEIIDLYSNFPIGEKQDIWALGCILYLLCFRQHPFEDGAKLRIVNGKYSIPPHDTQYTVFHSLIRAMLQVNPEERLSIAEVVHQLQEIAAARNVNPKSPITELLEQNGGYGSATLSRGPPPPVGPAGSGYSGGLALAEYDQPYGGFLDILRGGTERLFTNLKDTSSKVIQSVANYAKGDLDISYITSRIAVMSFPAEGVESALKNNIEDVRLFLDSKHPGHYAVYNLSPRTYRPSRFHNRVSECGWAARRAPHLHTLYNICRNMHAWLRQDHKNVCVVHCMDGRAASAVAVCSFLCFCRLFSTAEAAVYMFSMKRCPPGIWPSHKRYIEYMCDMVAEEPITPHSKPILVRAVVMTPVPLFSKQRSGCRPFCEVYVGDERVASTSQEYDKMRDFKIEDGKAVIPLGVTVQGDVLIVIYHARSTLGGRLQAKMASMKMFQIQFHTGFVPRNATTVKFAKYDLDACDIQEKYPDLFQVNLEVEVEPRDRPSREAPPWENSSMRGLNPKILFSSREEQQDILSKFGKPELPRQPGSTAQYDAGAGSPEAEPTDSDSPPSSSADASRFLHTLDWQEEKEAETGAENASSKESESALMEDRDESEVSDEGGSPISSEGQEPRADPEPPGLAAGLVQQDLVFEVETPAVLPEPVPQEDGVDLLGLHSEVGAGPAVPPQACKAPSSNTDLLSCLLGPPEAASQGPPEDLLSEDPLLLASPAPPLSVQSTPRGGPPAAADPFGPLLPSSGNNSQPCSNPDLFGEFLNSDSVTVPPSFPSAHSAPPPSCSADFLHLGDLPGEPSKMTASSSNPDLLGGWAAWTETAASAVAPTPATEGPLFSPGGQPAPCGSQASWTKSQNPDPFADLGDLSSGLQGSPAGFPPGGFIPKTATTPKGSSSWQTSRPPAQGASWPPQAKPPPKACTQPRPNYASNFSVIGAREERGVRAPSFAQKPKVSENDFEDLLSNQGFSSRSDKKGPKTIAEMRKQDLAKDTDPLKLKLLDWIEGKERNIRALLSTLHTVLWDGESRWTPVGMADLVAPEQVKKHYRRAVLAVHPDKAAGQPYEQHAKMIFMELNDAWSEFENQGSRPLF
Experimental: as §1, §2

[1] = molecular target: T7, TYK2 (JH2 domain-pseudokinase) (Homo sapiens, UniProt P29597); details: for % Competition: TYK2 (JH2 domain-pseudokinase), 10 µM
T7 construct: TYK2 (JH2 domain-pseudokinase); purchased Ambit Biosciences (KINOMEscan)
Experimental: as §1, §2

ACVR2B = molecular target: T8, ACVR2B (Homo sapiens, UniProt Q13705); details: for % Competition: 10 µM
T8 construct: purchased Ambit Biosciences (KINOMEscan)
Experimental: as §1, §2

DMPK2 = molecular target: T9, DMPK2 (Homo sapiens, UniProt Q6DT37)
T9 construct: purchased Ambit Biosciences (KINOMEscan)
Experimental: as §1, §2

SLK = molecular target: T10, SLK (Homo sapiens, UniProt Q9H2G2)
T10 construct: purchased Ambit Biosciences (KINOMEscan)
Experimental: as §1, §2

CSNK1G2 = molecular target: T11, CSNK1G2 (Homo sapiens, UniProt P78368); details: for % Competition: 10 µM
T11 construct: purchased Ambit Biosciences (KINOMEscan)
Experimental: as §1, §2

EGFR(E746-A750del) = molecular target: T12, EGFR(E746-A750del) (Homo sapiens, UniProt P00533, DEL746-750); details: for % Competition: 10 µM
T12 construct: purchased Ambit Biosciences (KINOMEscan)
Experimental: as §1, §2

CLK1 = molecular target: T13, CLK1 (Homo sapiens, UniProt P49759)
T13 construct: purchased Ambit Biosciences (KINOMEscan)
Experimental: as §1, §2

T10 sequence (Q9H2G2 whole entry): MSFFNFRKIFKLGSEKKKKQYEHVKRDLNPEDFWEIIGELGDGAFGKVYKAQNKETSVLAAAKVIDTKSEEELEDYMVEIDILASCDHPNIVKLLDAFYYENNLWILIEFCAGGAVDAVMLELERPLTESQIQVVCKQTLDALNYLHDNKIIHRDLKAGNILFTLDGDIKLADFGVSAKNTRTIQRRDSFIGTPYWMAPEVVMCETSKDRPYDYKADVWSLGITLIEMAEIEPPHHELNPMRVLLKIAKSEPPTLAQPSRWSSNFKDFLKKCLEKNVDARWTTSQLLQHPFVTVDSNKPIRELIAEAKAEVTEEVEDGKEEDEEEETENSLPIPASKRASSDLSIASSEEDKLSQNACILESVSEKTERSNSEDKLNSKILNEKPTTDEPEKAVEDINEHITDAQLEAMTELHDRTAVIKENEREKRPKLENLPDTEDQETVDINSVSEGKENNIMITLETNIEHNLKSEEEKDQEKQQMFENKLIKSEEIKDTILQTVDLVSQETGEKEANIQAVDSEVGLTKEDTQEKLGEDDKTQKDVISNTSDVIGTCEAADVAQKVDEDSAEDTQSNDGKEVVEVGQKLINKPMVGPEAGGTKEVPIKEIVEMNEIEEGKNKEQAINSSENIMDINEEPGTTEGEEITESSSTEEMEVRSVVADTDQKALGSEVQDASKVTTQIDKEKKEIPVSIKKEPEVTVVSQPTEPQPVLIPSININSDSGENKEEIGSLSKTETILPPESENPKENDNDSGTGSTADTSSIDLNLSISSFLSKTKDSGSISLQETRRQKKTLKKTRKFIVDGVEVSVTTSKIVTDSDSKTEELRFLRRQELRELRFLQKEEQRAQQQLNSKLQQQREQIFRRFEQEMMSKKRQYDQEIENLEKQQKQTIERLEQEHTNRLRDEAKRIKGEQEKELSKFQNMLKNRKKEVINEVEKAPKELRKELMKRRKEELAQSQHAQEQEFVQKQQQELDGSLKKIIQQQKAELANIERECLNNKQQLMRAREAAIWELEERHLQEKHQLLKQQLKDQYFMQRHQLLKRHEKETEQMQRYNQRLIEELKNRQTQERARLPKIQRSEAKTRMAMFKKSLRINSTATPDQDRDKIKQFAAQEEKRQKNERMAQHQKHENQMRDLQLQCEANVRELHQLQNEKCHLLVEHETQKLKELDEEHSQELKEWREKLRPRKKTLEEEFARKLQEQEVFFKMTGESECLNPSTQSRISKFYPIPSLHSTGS
T3 sequence (Q9Y6M4 whole entry): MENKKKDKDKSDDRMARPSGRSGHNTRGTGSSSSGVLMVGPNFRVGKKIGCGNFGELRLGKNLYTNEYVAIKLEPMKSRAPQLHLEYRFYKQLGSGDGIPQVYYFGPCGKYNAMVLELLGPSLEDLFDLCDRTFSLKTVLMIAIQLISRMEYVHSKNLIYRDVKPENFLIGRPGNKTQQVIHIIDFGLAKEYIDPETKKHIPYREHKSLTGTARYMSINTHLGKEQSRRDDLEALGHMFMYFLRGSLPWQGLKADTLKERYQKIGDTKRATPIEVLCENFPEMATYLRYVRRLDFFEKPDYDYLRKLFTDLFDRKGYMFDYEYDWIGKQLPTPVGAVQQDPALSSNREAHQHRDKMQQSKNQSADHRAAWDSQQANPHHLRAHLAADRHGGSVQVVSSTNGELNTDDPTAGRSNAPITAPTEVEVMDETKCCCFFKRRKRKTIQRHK
T11 sequence (P78368 whole entry): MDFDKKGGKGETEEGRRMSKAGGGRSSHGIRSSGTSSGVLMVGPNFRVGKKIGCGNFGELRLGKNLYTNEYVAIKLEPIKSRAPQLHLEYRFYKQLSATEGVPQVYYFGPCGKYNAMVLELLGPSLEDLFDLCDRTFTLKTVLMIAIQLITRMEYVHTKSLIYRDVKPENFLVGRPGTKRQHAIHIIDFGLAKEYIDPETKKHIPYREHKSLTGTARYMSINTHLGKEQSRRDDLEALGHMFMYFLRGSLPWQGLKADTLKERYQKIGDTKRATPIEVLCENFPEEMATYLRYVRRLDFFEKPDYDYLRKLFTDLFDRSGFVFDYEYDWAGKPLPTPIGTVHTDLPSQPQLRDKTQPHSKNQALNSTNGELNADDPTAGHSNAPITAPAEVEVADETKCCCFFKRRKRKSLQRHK
T7 sequence (P29597 556-888 limits assumed): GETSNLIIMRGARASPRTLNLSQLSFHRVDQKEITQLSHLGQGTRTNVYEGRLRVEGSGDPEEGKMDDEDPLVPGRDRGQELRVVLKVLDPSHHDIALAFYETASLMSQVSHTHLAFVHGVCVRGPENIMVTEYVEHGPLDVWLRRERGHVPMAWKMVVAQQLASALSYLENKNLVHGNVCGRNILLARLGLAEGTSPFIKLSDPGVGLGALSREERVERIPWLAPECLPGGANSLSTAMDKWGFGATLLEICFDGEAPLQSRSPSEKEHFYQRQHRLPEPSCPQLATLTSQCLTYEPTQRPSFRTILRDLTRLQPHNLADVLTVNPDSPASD
T2 sequence (Q8IU85 whole entry): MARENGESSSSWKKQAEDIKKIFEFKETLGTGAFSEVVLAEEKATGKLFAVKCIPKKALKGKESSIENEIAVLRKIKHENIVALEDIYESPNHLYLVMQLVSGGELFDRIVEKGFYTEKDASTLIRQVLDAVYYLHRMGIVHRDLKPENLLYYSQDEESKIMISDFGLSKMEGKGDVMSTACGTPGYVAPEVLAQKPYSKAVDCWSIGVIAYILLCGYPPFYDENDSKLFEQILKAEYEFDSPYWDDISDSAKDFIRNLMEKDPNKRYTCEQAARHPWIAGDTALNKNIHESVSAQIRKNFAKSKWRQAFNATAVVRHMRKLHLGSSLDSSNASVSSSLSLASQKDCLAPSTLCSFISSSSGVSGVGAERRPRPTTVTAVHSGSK
T9 sequence (Q6DT37 whole entry): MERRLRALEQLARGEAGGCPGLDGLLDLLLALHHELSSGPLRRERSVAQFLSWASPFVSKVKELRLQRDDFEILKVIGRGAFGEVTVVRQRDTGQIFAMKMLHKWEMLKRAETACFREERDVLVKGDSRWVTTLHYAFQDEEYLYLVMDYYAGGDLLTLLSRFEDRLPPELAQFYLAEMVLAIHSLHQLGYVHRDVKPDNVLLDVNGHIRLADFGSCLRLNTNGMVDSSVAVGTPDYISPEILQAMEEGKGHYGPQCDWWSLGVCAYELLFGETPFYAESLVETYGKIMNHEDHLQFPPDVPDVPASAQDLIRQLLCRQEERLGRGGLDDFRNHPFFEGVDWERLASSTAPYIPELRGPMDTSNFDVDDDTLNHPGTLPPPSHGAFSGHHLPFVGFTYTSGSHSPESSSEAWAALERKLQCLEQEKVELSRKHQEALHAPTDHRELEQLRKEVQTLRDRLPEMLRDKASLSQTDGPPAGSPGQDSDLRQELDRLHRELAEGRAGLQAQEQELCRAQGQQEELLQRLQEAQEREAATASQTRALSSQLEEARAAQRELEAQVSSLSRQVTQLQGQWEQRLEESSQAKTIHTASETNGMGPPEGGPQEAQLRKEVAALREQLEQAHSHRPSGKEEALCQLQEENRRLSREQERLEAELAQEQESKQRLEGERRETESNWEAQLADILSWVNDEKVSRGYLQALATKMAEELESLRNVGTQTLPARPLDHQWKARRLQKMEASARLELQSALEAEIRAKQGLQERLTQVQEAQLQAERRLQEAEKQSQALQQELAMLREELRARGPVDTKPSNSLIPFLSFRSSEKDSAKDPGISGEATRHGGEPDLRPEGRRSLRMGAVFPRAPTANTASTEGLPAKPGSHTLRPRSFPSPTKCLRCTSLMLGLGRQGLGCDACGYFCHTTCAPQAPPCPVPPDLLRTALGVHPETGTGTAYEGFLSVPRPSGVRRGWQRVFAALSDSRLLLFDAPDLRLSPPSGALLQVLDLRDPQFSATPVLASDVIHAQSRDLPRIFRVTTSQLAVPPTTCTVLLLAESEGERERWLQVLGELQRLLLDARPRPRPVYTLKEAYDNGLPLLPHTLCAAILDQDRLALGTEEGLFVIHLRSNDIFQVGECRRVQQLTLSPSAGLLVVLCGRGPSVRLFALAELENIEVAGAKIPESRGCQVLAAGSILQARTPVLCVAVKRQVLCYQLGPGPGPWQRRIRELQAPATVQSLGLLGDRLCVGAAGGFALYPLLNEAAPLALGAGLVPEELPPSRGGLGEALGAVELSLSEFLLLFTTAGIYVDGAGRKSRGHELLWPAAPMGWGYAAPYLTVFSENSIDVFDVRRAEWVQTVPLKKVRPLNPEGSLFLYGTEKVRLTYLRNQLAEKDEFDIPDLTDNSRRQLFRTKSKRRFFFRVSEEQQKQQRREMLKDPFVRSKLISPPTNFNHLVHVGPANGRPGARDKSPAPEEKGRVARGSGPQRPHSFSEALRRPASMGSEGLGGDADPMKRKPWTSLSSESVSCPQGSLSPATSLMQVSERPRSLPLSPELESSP
T5 sequence (Q15759 whole entry): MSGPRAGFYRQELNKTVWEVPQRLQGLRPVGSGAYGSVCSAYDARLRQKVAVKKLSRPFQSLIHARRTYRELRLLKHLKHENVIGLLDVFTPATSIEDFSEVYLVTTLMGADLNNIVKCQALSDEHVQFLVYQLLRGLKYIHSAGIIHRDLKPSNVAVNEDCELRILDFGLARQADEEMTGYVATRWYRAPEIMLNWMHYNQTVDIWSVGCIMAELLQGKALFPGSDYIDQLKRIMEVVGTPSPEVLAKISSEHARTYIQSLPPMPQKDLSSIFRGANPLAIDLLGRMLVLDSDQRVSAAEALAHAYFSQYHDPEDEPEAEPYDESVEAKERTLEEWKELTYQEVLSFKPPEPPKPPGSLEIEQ

- inhibition at 10 µM (CSNK1D; CSNK1D, 10 µM, read-out: % Competition): 97%
- competition (CAMKIδ): < 50%
- % Competition (CSNK1G3): 86%
- % Competition (EGFR(S752-I759del)): 98%
- inhibition at 10 µM (p38-beta; 10 µM, read-out: % Competition): 100%
- inhibition at 10 µM (GAK; GAK, 10 µM, read-out: % Competition): 98%
- % Competition [1]: 78%
- % Competition (ACVR2B): 92%
- inhibition at 10 µM (DMPK2; DMPK2, 10 µM, read-out: % Competition): 100%
- inhibition at 10 µM (SLK; SLK, 10 µM, read-out: % Competition): 80%
- % Competition (CSNK1G2): 82%
- % Competition (EGFR(E746-A750del)): 96%
- inhibition at 10 µM (CLK1; CLK1, 10 µM, read-out: % Competition): 97%
SMILES: Fc1ccc(-c2c(-c3ccncc3)[nH]c3nccnc23)cc1 [Compound 122]

SMILES: CC(O)CNc1cc(-c2[nH]c3cccnc3c2-c2ccc(F)cc2)ccn1 (stereo not drawn) [Compound 140]
- inhibition at 10 µM (CSNK1D; read-out: % Competition): 96%
- competition (CAMKIδ): < 50%
- % Competition (CSNK1G3): 91%
- % Competition (EGFR(S752-I759del)): 91%
- % Competition (p38-beta; 10 µM): 100%
- inhibition at 10 µM (GAK; read-out: % Competition): 98%
- % Competition [1]: 92%
- % Competition (ACVR2B): <50%
- inhibition at 10 µM (DMPK2; read-out: % Competition): 74%
- inhibition at 10 µM (SLK; read-out: % Competition): < 50%
- % Competition (CSNK1G2): 89%
- % Competition (EGFR(E746-A750del)): 90%
- inhibition at 10 µM (CLK1; read-out: % Competition): < 50%

- inhibition at 10 µM (CSNK1D; CSNK1D, compound concentration 10 uM, read-out: Percent Competition): 97%
- inhibition at 10 µM (CAMKIδ; CAMK1D, compound concentration 10 uM, read-out: Percent Competition): < 50%
- Percent Competition (CSNK1G3; compound concentration 10 uM): 86%
- Percent Competition (EGFR(S752-I759del); compound concentration 10 uM): 98%
- inhibition at 10 µM (p38-beta; compound concentration 10 uM, read-out: Percent Competition): 100%
- inhibition at 10 µM (GAK; GAK, compound concentration 10 uM, read-out: Percent Competition): 98%
- Percent Competition ([1]; TYK2(JH2domain-pseudokinase), compound concentration 10 uM): 78%
- Percent Competition (ACVR2B; compound concentration 10 uM): 92%
- inhibition at 10 µM (DMPK2; DMPK2, compound concentration 10 uM, read-out: Percent Competition): 100%
- inhibition at 10 µM (SLK; SLK, compound concentration 10 uM, read-out: Percent Competition): 80%
- Percent Competition (CSNK1G2; compound concentration 10 uM): 82%
- Percent Competition (EGFR(E746-A750del); compound concentration 10 uM): 96%
- inhibition at 10 µM (CLK1; CLK1, compound concentration 10 uM, read-out: Percent Competition): 97%
SMILES: Fc1ccc(-c2c(-c3ccncc3)[nH]c3nccnc23)cc1 [RO1155697-000-005]
